Experimental findings from ChEMBL document CHEMBL5321216, “Discovery of bipyridine amide derivatives targeting pRXRα-PLK1 interaction for anticancer therapy” (Eur J Med Chem, 2023) are described below.

The IC50 is the concentration at which inhibition is half-maximal. Broadly, the AUC(0-inf) is total exposure, with the tail of the curve extrapolated. Read a low AUC(0-inf) as low exposure. As a reminder, the Cmax is the highest concentration seen after dosing. As a reminder, the Tmax is the time from dosing to the highest level.

Data set [1] concerns MDA-MB-231. Briefly: Antiproliferative activity against human MDA-MB-231 cells assessed as cell viability rate at 5 uM incubated for 72 hrs by MTT assay relative to control. Type of data set: functional. In general terms: Tetrazolium dyes change colour on reduction, which living cells bring about.
Data set [2] has as its system A549. Briefly: Antiproliferative activity against human A549 cells assessed as cell viability rate at 5 uM incubated for 72 hrs by MTT assay relative to control. The class given is functional.
Another data set deals with HepG2. Briefly: Antiproliferative activity against human HepG2 cells assessed as cell viability rate at 5 uM incubated for 72 hrs by MTT assay relative to control. Type of data set: functional.
In data set [3] the test system is MDA-MB-231. Briefly: Antiproliferative activity against human MDA-MB-231 cells assessed as inhibition of cell proliferation incubated for 72 hrs by MTT assay. Type of data set: functional, cell-based. Conditions: MDA-MB-231, 72 h; call rule not given here.
The test system of data set [4] is A549. In words: Induction of apoptosis in human A549 cells assessed as dead cells at 20 uM incubated for 24 hrs by annexin V-FITC/PI staining based flow cytometry analysis (reference value: 0.75%). Type of data set: functional. A general note: In flow cytometry, cells or beads pass a laser one at a time.
In data set [5] the test system is A549. Briefly: Induction of apoptosis in human A549 cells assessed as late apoptotic cells at 20 uM incubated for 24 hrs by annexin V-FITC/PI staining based flow cytometry analysis (reference value: 5.28%). The class given is functional.
The subject of data set [6] is A549. Briefly: Induction of apoptosis in human A549 cells assessed as early apoptotic cells at 20 uM incubated for 24 hrs by annexin V-FITC/PI staining based flow cytometry analysis (reference value: 0.78%). The class given is functional.
Data set [7] concerns A549. In words: Induction of apoptosis in human A549 cells assessed as live cells at 20 uM incubated for 24 hrs by annexin V-FITC/PI staining based flow cytometry analysis (reference value: 93.2%). The class given is functional.
Data set [8] has as its system MDA-MB-231. Briefly: Induction of apoptosis in human MDA-MB-231 cells assessed as live cells at 20 uM incubated for 24 hrs by annexin V-FITC/PI staining based flow cytometry analysis (reference value: 91.3%). The class given is functional.
Data set [9] deals with MDA-MB-231. Briefly: Induction of apoptosis in human MDA-MB-231 cells assessed as early apoptotic cells at 20 uM incubated for 24 hrs by annexin V-FITC/PI staining based flow cytometry analysis (reference value: 2.03%). The class given is functional.
In data set [10] the test system is MDA-MB-231. Briefly: Induction of apoptosis in human MDA-MB-231 cells assessed as late apoptotic cells at 20 uM incubated for 24 hrs by annexin V-FITC/PI staining based flow cytometry analysis (reference value: 5.93%). The class given is functional.
The subject of data set [11] is MDA-MB-231. Briefly: Induction of apoptosis in human MDA-MB-231 cells assessed as dead cells at 20 uM incubated for 24 hrs by annexin V-FITC/PI staining based flow cytometry analysis (reference value: 0.69%). Type of data set: functional.
Data set [12] is described as follows: Drug absorption in KM mouse at 25 mg/kg, po measured after 0.5 to 2 hrs. The class given is ADME, organism-based. The note with it: in vivo, time 0.5-2 hrs.
The nature of data set [13]: Drug absorption in KM mouse at 25 mg/kg, ip measured after 0.5 to 2 hrs. The class given is ADME, organism-based. The note with it: in vivo, time 0.5-2 hrs.
Data set [14] can be described thus: AUC (0 to infinity) in Sprague-Dawley rat at 25 mg/kg, ip measured for 48 hrs by LC-MS/MS analysis. Type of data set: ADME, organism-based. Further details: time 48 hrs, dose 25 mg/kg, route ip. The note with it: in vivo.
The nature of data set [15]: Cmax in Sprague-Dawley rat at 25 mg/kg, ip measured for 48 hrs by LC-MS/MS analysis. Set-up: time 48 hrs, dose 25 mg/kg, route ip. The note with it: in vivo. The class given is ADME, organism-based.
Data set [16] can be described thus: Tmax in Sprague-Dawley rat at 25 mg/kg, ip measured for 48 hrs by LC-MS/MS analysis. Type of data set: ADME, organism-based. The note with it: in vivo.
Data set [17] in a line: Elimination half life in Sprague-Dawley rat at 25 mg/kg, ip measured for 48 hrs by LC-MS/MS analysis. Type of data set: ADME, organism-based. Conditions: in vivo, read-out: beta t1/2 (converted).
Data set [18] can be described thus: Apparent clearance during terminal phase in Sprague-Dawley rat at 25 mg/kg, ip measured for 48 hrs by LC-MS/MS analysis. The note with it: in vivo, read-out: CLz/F (converted). The class given is ADME, organism-based.
Data set [19] in a line: Apparent volume of distribution during terminal phase in Sprague-Dawley rat at 25 mg/kg, ip measured for 48 hrs by LC-MS/MS analysis. Type of data set: ADME, organism-based. The note with it: in vivo, read-out: Vz/F.

Consider `COc1ccc(CC(=O)N/N=C/c2c(O)ccc3ccccc23)cc1`, for which the Activity in the data set with MDA-MB-231 [1] turned out to be 51.93%; in the data set with A549 [2] it was 82.65%; in the data set on HepG2, 48.65%; in the data set on A549 [4], 1.15%; in the data set on A549 [5] it was 32.7%; in the data set with A549 [6] it was 26.1%. Moreover, the Activity with A549 [7] is given as 40.1%; in the data set with MDA-MB-231 [8], 62.5%; with MDA-MB-231 [9], 23.5%; in the data set on MDA-MB-231 [10], 12.7%; in the data set on MDA-MB-231 [11], 1.22%. The IC50 in the data set on MDA-MB-231 [3] was 6.88 µM. Also, the Drug absorption result in [12] is “Not Active”; in data set [13] it was “Active”. The compound further registered an area under the curve AUC(0-inf) in data set [14] of 7040 ng·h/mL. This compound also gave a maximum concentration (Cmax) in [15] of 1060 ng/mL. In addition, in [16], the Tmax is 2.67 h. Further, in data set [17], the half-life is 2.13 h. In addition, the CL/F in [18] is 61.2 mL/min/kg. The Vd/F in [19] was found to be 11.3 L/kg.
